{"source": "patent US11203601B2", "about": "“Tricyclic compounds as glycogen synthase kinase 3 (GSK3) inhibitors and uses thereof” (The Broad Institute, Inc., priority 2017, dated 2021)", "test_in_all_cases": "Carna kinome panel", "assay_type_in_all_cases": "biochemical", "key": {"[1]": {"molecular_target": "DYRK2 (Homo sapiens (Human), UniProt Q92630)", "conditions": "read-out: % Inhibition at 10 μM of the test compound"}, "[2]": {"molecular_target": "PDGFRα(D842V) (Homo sapiens (Human), UniProt P16234, D842V)", "conditions": "read-out: % Inhibition at 10 μM of the test compound"}, "[3]": {"molecular_target": "CLK2 (Homo sapiens (Human), UniProt P49760)", "conditions": "read-out: % Inhibition at 10 μM of the test compound"}, "[4]": {"molecular_target": "PKACβ (Homo sapiens (Human), UniProt P22694)", "conditions": "read-out: % Inhibition at 10 μM of the test compound"}, "[5]": {"molecular_target": "MARK1 (Homo sapiens (Human), UniProt Q9P0L2)", "conditions": "read-out: % Inhibition at 10 μM of the test compound"}, "[6]": {"molecular_target": "PKCζ (Homo sapiens (Human), UniProt Q05513)", "conditions": "read-out: % Inhibition at 10 μM of the test compound"}, "[7]": {"molecular_target": "DLK_Cascade (Homo sapiens (Human), UniProt Q12852)", "conditions": "read-out: % Inhibition at 10 μM of the test compound"}, "[8]": {"molecular_target": "SPHK1 (Homo sapiens (Human), UniProt Q9NYA1)", "sequence (Q9NYA1 whole entry)": "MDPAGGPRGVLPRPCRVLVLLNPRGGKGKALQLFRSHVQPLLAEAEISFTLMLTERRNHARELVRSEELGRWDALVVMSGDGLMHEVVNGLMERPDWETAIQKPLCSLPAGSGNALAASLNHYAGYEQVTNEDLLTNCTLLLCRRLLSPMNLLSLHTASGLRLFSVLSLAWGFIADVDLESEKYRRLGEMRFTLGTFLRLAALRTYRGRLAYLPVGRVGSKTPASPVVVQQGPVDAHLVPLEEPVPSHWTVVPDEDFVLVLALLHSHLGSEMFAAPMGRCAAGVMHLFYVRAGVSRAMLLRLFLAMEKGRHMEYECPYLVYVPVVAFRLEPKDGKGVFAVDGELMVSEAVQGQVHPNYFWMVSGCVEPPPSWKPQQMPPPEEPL", "conditions": "read-out: % Inhibition at 10 μM of the test compound"}, "[9]": {"molecular_target": "TRKA (Homo sapiens (Human), UniProt P04629)", "conditions": "read-out: % Inhibition at 10 μM of the test compound"}, "[10]": {"molecular_target": "PIM1 (Homo sapiens (Human), UniProt P11309)", "conditions": "read-out: % Inhibition at 10 μM of the test compound"}, "[11]": {"molecular_target": "MARK3 (Homo sapiens (Human), UniProt P27448)", "conditions": "read-out: % Inhibition at 10 μM of the test compound"}, "[12]": {"molecular_target": "KIT(V560G) (Homo sapiens (Human), UniProt P10721, V560G)", "sequence (P10721 26-976 V560G)": "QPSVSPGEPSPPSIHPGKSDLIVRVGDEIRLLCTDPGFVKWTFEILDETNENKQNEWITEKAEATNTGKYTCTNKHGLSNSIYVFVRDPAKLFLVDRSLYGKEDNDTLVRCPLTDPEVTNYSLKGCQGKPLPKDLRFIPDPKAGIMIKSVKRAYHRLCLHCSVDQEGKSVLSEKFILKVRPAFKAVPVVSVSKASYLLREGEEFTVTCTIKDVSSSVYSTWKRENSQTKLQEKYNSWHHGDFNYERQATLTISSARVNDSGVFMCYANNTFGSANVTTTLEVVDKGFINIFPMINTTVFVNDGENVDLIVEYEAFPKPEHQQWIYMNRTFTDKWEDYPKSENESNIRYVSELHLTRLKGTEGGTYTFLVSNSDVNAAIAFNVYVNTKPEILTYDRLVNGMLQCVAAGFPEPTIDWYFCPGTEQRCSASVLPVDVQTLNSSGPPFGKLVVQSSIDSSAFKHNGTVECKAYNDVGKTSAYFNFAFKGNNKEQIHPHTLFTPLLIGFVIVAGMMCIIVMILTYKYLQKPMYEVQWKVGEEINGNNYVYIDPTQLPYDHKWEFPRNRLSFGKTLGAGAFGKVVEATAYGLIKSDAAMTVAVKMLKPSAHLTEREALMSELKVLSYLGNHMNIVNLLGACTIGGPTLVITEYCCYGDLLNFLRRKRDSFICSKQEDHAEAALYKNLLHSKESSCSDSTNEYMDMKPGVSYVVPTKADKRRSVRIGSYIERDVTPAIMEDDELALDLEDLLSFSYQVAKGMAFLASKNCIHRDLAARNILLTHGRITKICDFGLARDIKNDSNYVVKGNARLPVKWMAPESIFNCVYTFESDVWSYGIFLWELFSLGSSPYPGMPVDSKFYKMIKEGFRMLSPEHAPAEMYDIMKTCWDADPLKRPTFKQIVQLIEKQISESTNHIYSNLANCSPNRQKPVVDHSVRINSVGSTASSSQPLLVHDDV", "conditions": "read-out: % Inhibition at 10 μM of the test compound"}, "[13]": {"molecular_target": "INSR (Homo sapiens (Human), UniProt P06213)", "conditions": "read-out: % Inhibition at 10 μM of the test compound"}, "[14]": {"molecular_target": "IKKβ (Homo sapiens (Human), UniProt O14920)", "conditions": "read-out: % Inhibition at 10 μM of the test compound"}, "[15]": {"molecular_target": "KIT(D816V) (Homo sapiens (Human), UniProt P10721, D816V)", "sequence (P10721 26-976 D816V)": "as the sequence (P10721 26-976 V560G) above, with G535V, D791V counted along it", "conditions": "read-out: % Inhibition at 10 μM of the test compound"}, "[16]": {"molecular_target": "RET (Homo sapiens (Human), UniProt P07949)", "conditions": "read-out: % Inhibition at 10 μM of the test compound"}, "[17]": {"molecular_target": "JAK3 (Homo sapiens (Human), UniProt P52333)", "conditions": "read-out: % Inhibition at 10 μM of the test compound"}, "[18]": {"molecular_target": "EPHA1 (Homo sapiens (Human), UniProt P21709)", "conditions": "read-out: % Inhibition at 10 μM of the test compound"}, "[19]": {"tested_on": "MAP2K1_Cascade", "description": "Briefly, a selection of compounds was screened against a panel of kinases at a single concentration of 10 μM. […] This was completed using one of two assays, depending on the kinase being examined: 1) IMAP Assay. A solution of 4× inhibitor, 4× substrate/ATP/metal solution and 2× kinase solution was prepared with assay buffer (20 mM HEPES, 0.01% Tween-20, 2 mM DTT, pH 7.4) and mixed, then incubated in 384-well black plates for 1 hour at room temperature. The IMAP binding reagent (IMAP Screening Express kit; Molecular Devices) was added to each well and incubated for 30 minutes. […] 2) Off-Chip Mobility Shift Assay (MSA). A solution of 4× inhibitor, 4× substrate/ATP/metal solution and 2× kinase solution was prepared with assay buffer (20 mM HEPES, 0.01% Triton X-100, 2 mM DTT, pH 7.5) and mixed, then incubated in 384-well plates for 1 or 5 hours depending on the kinase, at room temperature. Termination buffer (QuickScout Screening assist MSA; Carna Biosciences) was added to each well. The entire reaction mixture was then applied to a LabChip3000 system (Caliper Life Science), and the product and substrate peptide peaks were separated and quantified. […] The entire reaction mixture was then applied to a LabChip3000 system (Caliper Life Science), and the product and substrate peptide peaks were separated and quantified."}, "[20]": {"molecular_target": "WNK2 (Homo sapiens (Human), UniProt Q9Y3S1)", "conditions": "read-out: % Inhibition at 10 μM of the test compound"}, "[21]": {"molecular_target": "CDK4/CycD3 (Homo sapiens (Human), UniProt P11802)", "conditions": "read-out: % Inhibition at 10 μM of the test compound"}, "[22]": {"molecular_target": "NEK7 (Homo sapiens (Human), UniProt Q8TDX7)", "conditions": "read-out: % Inhibition at 10 μM of the test compound"}, "[23]": {"molecular_target": "CaMK4 (Homo sapiens (Human), UniProt Q16566)", "conditions": "read-out: % Inhibition at 10 μM of the test compound"}, "[24]": {"molecular_target": "TAK1-TAB1_Cascade (Homo sapiens (Human), UniProt O43318)", "conditions": "read-out: % Inhibition at 10 μM of the test compound"}, "[25]": {"molecular_target": "FRK (Homo sapiens (Human), UniProt P42685)", "conditions": "read-out: % Inhibition at 10 μM of the test compound"}, "[26]": {"molecular_target": "WNK3 (Homo sapiens (Human), UniProt Q9BYP7)", "conditions": "read-out: % Inhibition at 10 μM of the test compound"}, "[27]": {"molecular_target": "NuaK2 (Homo sapiens (Human), UniProt Q9H093)", "conditions": "read-out: % Inhibition at 10 μM of the test compound"}, "[28]": {"molecular_target": "NuaK1 (Homo sapiens (Human), UniProt O60285)", "conditions": "read-out: % Inhibition at 10 μM of the test compound"}, "[29]": {"molecular_target": "CGK2 (Homo sapiens (Human), UniProt Q13237)", "sequence (Q13237 whole entry)": "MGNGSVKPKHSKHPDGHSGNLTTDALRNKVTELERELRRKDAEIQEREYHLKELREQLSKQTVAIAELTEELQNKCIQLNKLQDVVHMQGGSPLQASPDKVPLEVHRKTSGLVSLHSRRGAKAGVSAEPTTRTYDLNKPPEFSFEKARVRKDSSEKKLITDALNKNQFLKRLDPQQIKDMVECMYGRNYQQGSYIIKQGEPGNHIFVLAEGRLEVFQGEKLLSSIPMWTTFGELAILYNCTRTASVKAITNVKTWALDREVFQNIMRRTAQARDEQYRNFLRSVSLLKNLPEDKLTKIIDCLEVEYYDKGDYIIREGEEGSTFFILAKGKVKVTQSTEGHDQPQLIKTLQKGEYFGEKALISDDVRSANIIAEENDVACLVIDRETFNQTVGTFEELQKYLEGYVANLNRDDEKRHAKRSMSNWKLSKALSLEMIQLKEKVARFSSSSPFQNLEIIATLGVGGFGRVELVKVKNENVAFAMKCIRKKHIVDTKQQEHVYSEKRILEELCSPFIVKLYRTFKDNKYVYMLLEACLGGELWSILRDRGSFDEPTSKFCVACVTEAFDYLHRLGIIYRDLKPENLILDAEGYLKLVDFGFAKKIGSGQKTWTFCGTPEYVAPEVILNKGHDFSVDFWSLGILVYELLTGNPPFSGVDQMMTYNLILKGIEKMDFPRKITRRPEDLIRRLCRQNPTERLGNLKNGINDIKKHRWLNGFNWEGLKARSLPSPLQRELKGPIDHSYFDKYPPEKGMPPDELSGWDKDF", "conditions": "read-out: % Inhibition at 10 μM of the test compound"}, "[30]": {"molecular_target": "TBK1 (Homo sapiens (Human), UniProt Q9UHD2)", "conditions": "read-out: % Inhibition at 10 μM of the test compound"}, "[31]": {"molecular_target": "ALK(R1275Q) (Homo sapiens (Human), UniProt Q9UM73, R1275Q)", "conditions": "read-out: % Inhibition at 10 μM of the test compound"}, "[32]": {"molecular_target": "NEK2 (Homo sapiens (Human), UniProt P51955)", "conditions": "read-out: % Inhibition at 10 μM of the test compound"}, "[33]": {"molecular_target": "CDK3/CycE1 (Homo sapiens (Human), UniProt Q00526)", "source_text": "(§1) 2) Off-Chip Mobility Shift Assay (MSA)."}, "[34]": {"molecular_target": "PIK3CA/PIK3R1 (Homo sapiens (Human), UniProt P42336)", "sequence (P42336 whole entry, looked up)": "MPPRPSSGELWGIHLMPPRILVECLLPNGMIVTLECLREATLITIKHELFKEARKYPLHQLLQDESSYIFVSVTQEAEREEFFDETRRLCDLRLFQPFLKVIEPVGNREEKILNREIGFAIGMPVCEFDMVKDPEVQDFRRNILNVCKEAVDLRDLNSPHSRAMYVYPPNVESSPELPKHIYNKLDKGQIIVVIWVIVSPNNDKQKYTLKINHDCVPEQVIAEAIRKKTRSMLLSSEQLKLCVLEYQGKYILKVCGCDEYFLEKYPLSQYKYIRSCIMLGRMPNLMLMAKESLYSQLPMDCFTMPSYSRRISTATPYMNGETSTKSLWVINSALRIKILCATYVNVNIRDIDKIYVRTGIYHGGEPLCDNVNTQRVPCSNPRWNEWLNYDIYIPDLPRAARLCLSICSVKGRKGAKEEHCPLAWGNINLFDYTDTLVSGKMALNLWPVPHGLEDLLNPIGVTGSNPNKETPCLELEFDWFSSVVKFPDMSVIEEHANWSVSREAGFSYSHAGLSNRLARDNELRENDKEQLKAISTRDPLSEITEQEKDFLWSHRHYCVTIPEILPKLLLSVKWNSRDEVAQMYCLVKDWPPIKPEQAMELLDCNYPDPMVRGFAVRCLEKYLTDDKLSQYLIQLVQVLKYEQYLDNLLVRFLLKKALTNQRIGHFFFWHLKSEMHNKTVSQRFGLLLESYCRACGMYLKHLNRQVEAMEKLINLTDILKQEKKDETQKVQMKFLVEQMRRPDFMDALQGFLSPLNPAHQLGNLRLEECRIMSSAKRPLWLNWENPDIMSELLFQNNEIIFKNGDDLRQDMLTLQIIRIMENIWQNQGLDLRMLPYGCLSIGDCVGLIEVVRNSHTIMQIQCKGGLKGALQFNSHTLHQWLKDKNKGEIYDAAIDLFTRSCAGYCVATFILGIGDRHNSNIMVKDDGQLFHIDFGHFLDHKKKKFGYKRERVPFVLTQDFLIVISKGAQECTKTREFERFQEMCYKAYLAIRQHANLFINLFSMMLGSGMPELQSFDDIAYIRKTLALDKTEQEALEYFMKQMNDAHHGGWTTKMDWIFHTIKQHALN", "sequence (P27986 whole entry partner, looked up)": "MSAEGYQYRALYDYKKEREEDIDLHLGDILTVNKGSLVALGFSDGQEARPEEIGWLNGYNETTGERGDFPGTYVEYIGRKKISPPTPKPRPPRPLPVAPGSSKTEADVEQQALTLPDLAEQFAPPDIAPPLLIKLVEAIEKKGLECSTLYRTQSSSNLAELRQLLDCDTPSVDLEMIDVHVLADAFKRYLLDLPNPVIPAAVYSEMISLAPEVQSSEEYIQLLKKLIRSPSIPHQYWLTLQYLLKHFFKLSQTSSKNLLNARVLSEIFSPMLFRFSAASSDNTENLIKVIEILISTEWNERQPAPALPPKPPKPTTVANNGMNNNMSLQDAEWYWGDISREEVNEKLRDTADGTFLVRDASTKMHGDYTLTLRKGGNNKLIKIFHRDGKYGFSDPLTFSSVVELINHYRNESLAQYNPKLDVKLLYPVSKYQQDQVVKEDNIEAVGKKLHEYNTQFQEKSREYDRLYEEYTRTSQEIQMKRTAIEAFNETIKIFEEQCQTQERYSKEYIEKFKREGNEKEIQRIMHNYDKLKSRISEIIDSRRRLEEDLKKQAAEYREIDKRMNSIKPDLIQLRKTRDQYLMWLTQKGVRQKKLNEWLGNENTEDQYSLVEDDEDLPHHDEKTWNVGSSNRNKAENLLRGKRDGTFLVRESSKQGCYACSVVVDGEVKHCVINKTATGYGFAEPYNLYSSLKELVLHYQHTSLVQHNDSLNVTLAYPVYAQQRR", "source_text": "as §1"}, "[35]": {"molecular_target": "CDK2/CycE1 (Homo sapiens (Human), UniProt P24941)", "source_text": "as §1"}, "[36]": {"molecular_target": "CDK9/CycT1 (Homo sapiens (Human), UniProt P50750)", "sequence (P50750 whole entry, looked up)": "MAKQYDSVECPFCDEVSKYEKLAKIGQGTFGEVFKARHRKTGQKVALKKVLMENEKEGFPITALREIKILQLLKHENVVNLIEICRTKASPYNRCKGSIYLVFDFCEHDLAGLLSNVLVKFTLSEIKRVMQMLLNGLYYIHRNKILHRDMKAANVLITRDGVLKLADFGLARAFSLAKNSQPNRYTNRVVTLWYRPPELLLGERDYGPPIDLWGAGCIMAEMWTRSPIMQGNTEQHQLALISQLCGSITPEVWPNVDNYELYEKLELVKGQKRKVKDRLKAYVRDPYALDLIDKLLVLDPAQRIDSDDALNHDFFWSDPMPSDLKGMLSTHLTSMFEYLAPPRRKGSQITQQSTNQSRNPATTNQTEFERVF", "sequence (O60563 whole entry partner, looked up)": "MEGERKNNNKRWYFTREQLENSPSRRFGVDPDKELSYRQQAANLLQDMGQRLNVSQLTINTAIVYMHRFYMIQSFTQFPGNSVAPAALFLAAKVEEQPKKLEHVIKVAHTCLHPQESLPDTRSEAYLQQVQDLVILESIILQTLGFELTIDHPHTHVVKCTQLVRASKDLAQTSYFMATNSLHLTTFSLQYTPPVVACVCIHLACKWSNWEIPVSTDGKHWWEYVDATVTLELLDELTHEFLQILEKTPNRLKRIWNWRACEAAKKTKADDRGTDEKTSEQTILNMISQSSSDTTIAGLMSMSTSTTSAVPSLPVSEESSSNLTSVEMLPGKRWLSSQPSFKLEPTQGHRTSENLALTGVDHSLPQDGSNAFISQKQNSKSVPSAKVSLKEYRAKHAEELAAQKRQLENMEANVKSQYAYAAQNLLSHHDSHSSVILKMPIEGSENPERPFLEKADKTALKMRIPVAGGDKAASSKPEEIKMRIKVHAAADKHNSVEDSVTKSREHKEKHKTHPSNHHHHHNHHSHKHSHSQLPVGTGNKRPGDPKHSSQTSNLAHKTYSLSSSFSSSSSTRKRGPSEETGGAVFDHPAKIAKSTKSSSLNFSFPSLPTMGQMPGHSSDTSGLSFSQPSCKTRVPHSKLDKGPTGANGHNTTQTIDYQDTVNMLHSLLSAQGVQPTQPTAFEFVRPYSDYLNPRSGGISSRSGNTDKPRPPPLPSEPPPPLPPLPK", "source_text": "as §1"}, "[37]": {"molecular_target": "CDK2/CycA2 (Homo sapiens (Human), UniProt P24941)", "source_text": "as §1"}, "[38]": {"molecular_target": "ABL (Homo sapiens (Human), UniProt P00519)", "conditions": "read-out: % Inhibition at 10 μM of the test compound"}, "[39]": {"molecular_target": "MOS_Cascade (Homo sapiens (Human), UniProt P00540)", "conditions": "read-out: % Inhibition at 10 μM of the test compound"}, "[40]": {"conditions": "read-out: % Inhibition at 10 μM of the test compound"}}, "data": [{"smiles": "CCC1(c2ccccc2)C2=C(CC(C)(C)CC2=O)Nc2ncsc21", "note": "(centres unmarked) [Compound 1, 9-Ethyl-6,6-dimethyl-9-phenyl-5,6,7,9-tetrahydrothiazolo[4,5-b]quinolin-8(4H)-one]", "values": [{"measurement": "inhibition at 10 µM", "setting": "[1]", "result": 4, "unit": "%"}, {"measurement": "inhibition at 10 µM", "setting": "[2]", "result": -3.4, "unit": "%"}, {"measurement": "inhibition at 10 µM", "setting": "[3]", "result": 0.9, "unit": "%"}, {"measurement": "inhibition at 10 µM", "setting": "[4]", "result": -0.8, "unit": "%"}, {"measurement": "inhibition at 10 µM", "setting": "[5]", "result": -1.7, "unit": "%"}, {"measurement": "inhibition at 10 µM", "setting": "[6]", "result": 0.5, "unit": "%"}, {"measurement": "inhibition at 10 µM", "setting": "[7]", "result": 2.5, "unit": "%"}, {"measurement": "inhibition at 10 µM", "setting": "[8]", "result": -6.5, "unit": "%"}, {"measurement": "inhibition at 10 µM", "setting": "[9]", "result": 5.4, "unit": "%"}, {"measurement": "inhibition at 10 µM", "setting": "[10]", "result": 0, "unit": "%"}, {"measurement": "inhibition at 10 µM", "setting": "[11]", "result": -3.3, "unit": "%"}, {"measurement": "inhibition at 10 µM", "setting": "[12]", "result": -5.8, "unit": "%"}, {"measurement": "inhibition at 10 µM", "setting": "[13]", "result": 4.1, "unit": "%"}, {"measurement": "inhibition at 10 µM", "setting": "[14]", "result": 2.3, "unit": "%"}, {"measurement": "inhibition at 10 µM", "setting": "[15]", "result": -4.8, "unit": "%"}, {"measurement": "inhibition at 10 µM", "setting": "[16]", "result": -1.9, "unit": "%"}, {"measurement": "inhibition at 10 µM", "setting": "[17]", "result": 6.9, "unit": "%"}, {"measurement": "inhibition at 10 µM", "setting": "[18]", "result": 2, "unit": "%"}, {"measurement": "% Inhibition at 10 μM of the test compound", "setting": "[19]", "result": "−3.2", "unit": "%"}, {"measurement": "inhibition at 10 µM", "setting": "[20]", "result": 0.5, "unit": "%"}, {"measurement": "inhibition at 10 µM", "setting": "[21]", "result": 18.1, "unit": "%"}, {"measurement": "inhibition at 10 µM", "setting": "[22]", "result": -3.9, "unit": "%"}, {"measurement": "inhibition at 10 µM", "setting": "[23]", "result": -5.4, "unit": "%"}, {"measurement": "inhibition at 10 µM", "setting": "[24]", "result": 8, "unit": "%"}, {"measurement": "inhibition at 10 µM", "setting": "[25]", "result": 8.4, "unit": "%"}, {"measurement": "inhibition at 10 µM", "setting": "[26]", "result": 0.3, "unit": "%"}, {"measurement": "inhibition at 10 µM", "setting": "[27]", "result": 1.5, "unit": "%"}, {"measurement": "inhibition at 10 µM", "setting": "[28]", "result": -9.2, "unit": "%"}, {"measurement": "inhibition at 10 µM", "setting": "[29]", "result": -1.6, "unit": "%"}, {"measurement": "inhibition at 10 µM", "setting": "[30]", "result": -5.3, "unit": "%"}, {"measurement": "inhibition at 10 µM", "setting": "[31]", "result": -8, "unit": "%"}, {"measurement": "inhibition at 10 µM", "setting": "[32]", "result": 0.9, "unit": "%"}, {"measurement": "IC50", "setting": "[33]", "result": 6.22, "unit": "µM"}, {"measurement": "inhibition at 10 µM", "setting": "[33]; [40]", "result": 55.5, "unit": "%"}, {"measurement": "IC50", "setting": "[34]", "result": "> 10", "unit": "µM"}, {"measurement": "inhibition at 10 µM", "setting": "[34]; [40]", "result": 65.1, "unit": "%"}, {"measurement": "IC50", "setting": "[35]", "result": 8.52, "unit": "µM"}, {"measurement": "inhibition at 10 µM", "setting": "[35]; [40]", "result": 53.4, "unit": "%"}, {"measurement": "IC50", "setting": "[36]", "result": 6.48, "unit": "µM"}, {"measurement": "inhibition at 10 µM", "setting": "[36]; [40]", "result": 60.5, "unit": "%"}, {"measurement": "IC50", "setting": "[37]", "result": 6.91, "unit": "µM"}, {"measurement": "inhibition at 10 µM", "setting": "[37]; [40]", "result": 58.8, "unit": "%"}, {"measurement": "inhibition at 10 µM", "setting": "[38]", "result": -2.7, "unit": "%"}, {"measurement": "inhibition at 10 µM", "setting": "[39]", "result": 12.4, "unit": "%"}]}]}
